Test results from PubChem BioAssay AID330 (DTP/NCI, 2004).
Values joined by “and” are separate entries in the source; they are usually repeats but may differ in a detail not shown here. Equal values may be shown once. Inconclusive results and toxic doses are left out. The calls were made as follows: active = survival T/C of 150% or more; inactive = T/C below 125% in these data.

Test system: P388 leukemia ip, CD2F1 mice, survival T/C
Assay: NCI In Vivo Anticancer Drug Screen. Data for tumor model P388 Leukemia (intraperitoneal) in CD2F1 (CDF1) mice
Conditions: endpoint: median survival time, higher = longer survival
In short: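 Mice carrying the transplanted tumor received test compound or vehicle. Survival was recorded in each group, and the value is the treated-group measurement divided by that of the vehicle-treated control group.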

[1] = dose: 50.0 mg/kg/injection, schedule: Q01DX009 (ip), vehicle: saline with Tween-80
[2] = dose: 100.0 mg/kg/injection, schedule: Q01DX009 (ip), vehicle: saline with Tween-80
[3] = dose: 200.0 mg/kg/injection, schedule: Q01DX009 (ip), vehicle: saline with Tween-80
[4] = dose: 50.0 mg/kg/injection, schedule: Q01DX005 (ip), vehicle: Klucel (hydroxypropylcellulose) (HPC)
[5] = dose: 50.0 mg/kg/injection, schedule: Q01DX005 (ip), vehicle: saline
[6] = dose: 100.0 mg/kg/injection, schedule: Q01DX005 (ip), vehicle: Klucel (hydroxypropylcellulose) (HPC)
[7] = dose: 100.0 mg/kg/injection, schedule: Q01DX005 (ip), vehicle: saline
[8] = dose: 200.0 mg/kg/injection, schedule: Q01DX005 (ip), vehicle: Klucel (hydroxypropylcellulose) (HPC)
[9] = dose: 200.0 mg/kg/injection, schedule: Q01DX005 (ip), vehicle: saline
[10] = dose: 60.0 mg/kg/injection, schedule: Q01DX005 (ip), vehicle: saline with Tween-80
[11] = dose: 120.0 mg/kg/injection, schedule: Q01DX005 (ip), vehicle: saline with Tween-80
[12] = dose: 240.0 mg/kg/injection, schedule: Q01DX005 (ip), vehicle: saline with Tween-80
[13] = dose: 25.0 mg/kg/injection, schedule: Q04DX003 (ip), vehicle: saline with Tween-80
[14] = dose: 50.0 mg/kg/injection, schedule: Q04DX003 (ip), vehicle: saline with Tween-80
[15] = dose: 100.0 mg/kg/injection, schedule: Q04DX003 (ip), vehicle: saline with Tween-80
[16] = dose: 100.0 mg/kg/injection, schedule: Q01DX001 (ip), vehicle: Klucel (hydroxypropylcellulose) (HPC)
[17] = dose: 200.0 mg/kg/injection, schedule: Q01DX001 (ip), vehicle: Klucel (hydroxypropylcellulose) (HPC)
[18] = dose: 400.0 mg/kg/injection, schedule: Q01DX001 (ip), vehicle: Klucel (hydroxypropylcellulose) (HPC)

Measured: T/C

CC(C)CC(NC(=O)C(Cc1ccccc1)NC(=O)CNC(=O)CNC(=O)C(N)Cc1ccc(O)cc1)C(N)=O (centres undefined)
inactive: dose: 8.75 mg/kg/injection, schedule: Q01DX005 (ip), vehicle: saline 108 % of control | dose: 17.5 mg/kg/injection, schedule: Q01DX005 (ip), vehicle: saline 110 % of control | dose: 35.0 mg/kg/injection, schedule: Q01DX005 (ip), vehicle: saline 104 % of control | dose: 70.0 mg/kg/injection, schedule: Q01DX005 (ip), vehicle: saline 112 % of control | dose: 140.0 mg/kg/injection, schedule: Q01DX005 (ip), vehicle: saline 108 % of control

CCOC(=O)C(CSC(c1ccccc1)(c1ccccc1)c1ccccc1)NC(=O)CCNC(=O)c1ccccc1 (centres undefined)
inactive: dose: 4.0 mg/kg/injection, schedule: Q01DX009 (ip), vehicle: other 96 % of control | dose: 8.0 mg/kg/injection, schedule: Q01DX009 (ip), vehicle: other 112 % of control | dose: 16.0 mg/kg/injection, schedule: Q01DX009 (ip), vehicle: other 101 % of control | dose: 32.0 mg/kg/injection, schedule: Q01DX009 (ip), vehicle: other 96 % of control | dose: 50.0 mg/kg/injection, schedule: Q01DX009 (ip), vehicle: other 104 % of control | dose: 64.0 mg/kg/injection, schedule: Q01DX009 (ip), vehicle: other 98 % of control | dose: 100.0 mg/kg/injection, schedule: Q01DX009 (ip), vehicle: other 95 % of control | dose: 200.0 mg/kg/injection, schedule: Q01DX009 (ip), vehicle: other 90 % of control | dose: 400.0 mg/kg/injection, schedule: Q01DX009 (ip), vehicle: other 95 % of control

CN(C)C1C=C(c2ccccc2)OS(=O)(=O)C1 (centres undefined)
inactive: [1] 99 % of control | [2] 97 % of control | [3] 113 % of control

CC1CCCC(C)N1C(=O)OCC12COC3(C)CCC(C)(OC1)N23 (centres undefined)
inactive: dose: 25.0 mg/kg/injection, schedule: Q01DX005 (ip), vehicle: saline 100 % of control | [4] 95 % of control | [5] 99 % of control and 100 % of control | [6] 109 % of control | [7] 104 % of control and 108 % of control | [8] 109 % of control | [9] 122 % of control and 96 % of control

Cn1cnc([N+](=O)[O-])c1[Se]c1ncnc2c1c(C#N)cn2C1OC(CO)C(O)C1O (centres undefined)
inactive: dose: 12.5 mg/kg/injection, schedule: Q04DX003 (ip), vehicle: saline 103 % of control | dose: 25.0 mg/kg/injection, schedule: Q04DX003 (ip), vehicle: saline 116 % of control | dose: 50.0 mg/kg/injection, schedule: Q04DX003 (ip), vehicle: saline 116 % of control

C/C(N)=C(\C#N)C(=O)c1ccccc1
inactive: [4] 100 % of control | [6] 103 % of control | [8] 111 % of control

CSC(=S)NC#N
inactive: dose: 25.0 mg/kg/injection, schedule: Q01DX009 (ip), vehicle: saline with Tween-80 111 % of control | [1] 100 % of control | [2] 107 % of control | [3] 108 % of control

O=c1ccn(C2OC(CO)C(O)C2O)c(=O)[nH]1 (centres undefined)
inactive: dose: 25.0 mg/kg/injection, schedule: Q01DX009 (ip), vehicle: water 100 % of control | dose: 32.0 mg/kg/injection, schedule: Q01DX009 (ip), vehicle: Klucel (hydroxypropylcellulose) (HPC) 90 % of control | dose: 32.0 mg/kg/injection, schedule: Q01DX009 (ip), vehicle: saline 86 % of control and 87 % of control | dose: 50.0 mg/kg/injection, schedule: Q01DX009 (ip), vehicle: saline 108 % of control | dose: 50.0 mg/kg/injection, schedule: Q01DX009 (ip), vehicle: water 100 % of control | dose: 64.0 mg/kg/injection, schedule: Q01DX009 (ip), vehicle: Klucel (hydroxypropylcellulose) (HPC) 90 % of control | dose: 100.0 mg/kg/injection, schedule: Q01DX009 (ip), vehicle: saline 94 % of control and 115 % of control | dose: 100.0 mg/kg/injection, schedule: Q01DX009 (ip), vehicle: water 106 % of control | dose: 128.0 mg/kg/injection, schedule: Q01DX009 (ip), vehicle: Klucel (hydroxypropylcellulose) (HPC) 88 % of control | dose: 200.0 mg/kg/injection, schedule: Q01DX009 (ip), vehicle: saline 94 % of control and 112 % of control | dose: 200.0 mg/kg/injection, schedule: Q01DX009 (ip), vehicle: water 106 % of control | dose: 256.0 mg/kg/injection, schedule: Q01DX009 (ip), vehicle: Klucel (hydroxypropylcellulose) (HPC) 98 % of control | dose: 400.0 mg/kg/injection, schedule: Q01DX009 (ip), vehicle: saline 103 % of control and 100 % of control | dose: 400.0 mg/kg/injection, schedule: Q01DX009 (ip), vehicle: water 108 % of control | dose: 512.0 mg/kg/injection, schedule: Q01DX009 (ip), vehicle: Klucel (hydroxypropylcellulose) (HPC) 98 % of control | dose: 800.0 mg/kg/injection, schedule: Q01DX009 (ip), vehicle: saline 98 % of control | dose: 1024.0 mg/kg/injection, schedule: Q01DX009 (ip), vehicle: saline 100 % of control and 89 % of control | dose: 1600.0 mg/kg/injection, schedule: Q01DX009 (ip), vehicle: saline 98 % of control

C=CCC1(COS(N)(=O)=O)OC(n2cnc3c(N)ncnc32)C(O)C1O (centres undefined)
inactive: dose: 50.0 mg/kg/injection, schedule: Q01DX001 (ip), vehicle: saline 101 % of control | dose: 100.0 mg/kg/injection, schedule: Q01DX001 (ip), vehicle: saline 101 % of control | dose: 200.0 mg/kg/injection, schedule: Q01DX001 (ip), vehicle: saline 111 % of control | dose: 400.0 mg/kg/injection, schedule: Q01DX001 (ip), vehicle: saline 99 % of control

COc1ccc(C2c3cc4c(cc3OC3(O)CCCC(=O)C23)OCO4)cc1 (centres undefined)
inactive: [10] 100 % of control | [11] 100 % of control | [12] 93 % of control

O=C(Nc1ccc(CCO)cc1)c1cccc(F)c1
inactive: [10] 93 % of control | [11] 86 % of control | [12] 86 % of control

c1cc2c3c(c1)nc(CCCc1nc4cccc5c4n1CCC5)n3CCC2
inactive: [13] 95 % of control | [14] 86 % of control | [15] 90 % of control

COc1cc(OC)c(C2CC(C)(N3CCCC3)Oc3cc4c(cc32)OCO4)c(OC)c1 (centres undefined)
inactive: [10] 94 % of control | [11] 91 % of control | [12] 87 % of control

Cc1cccc(-n2c(-c3ccccc3)cs/c2=N\N=C2/CSC(=O)N2Cc2ccccc2)c1
inactive: [16] 101 % of control | [17] 101 % of control | [18] 99 % of control

NC(CP(=O)(O)O)C(=O)O (centres undefined)
inactive: [5] 106 % of control | [7] 101 % of control | [9] 91 % of control

Cn1cnc([N+](=O)[O-])c1[Se]c1nc(N)nc2c1ncn2C1OC(CO)C(O)C1O (centres undefined)
active: dose: 32.0 mg/kg/injection, schedule: Q01DX009 (ip), vehicle: distilled water + Tween-80 160 % of control | dose: 32.0 mg/kg/injection, schedule: Q01DX009 (ip), vehicle: water 175 % of control
inactive: dose: 2.0 mg/kg/injection, schedule: Q01DX009 (ip), vehicle: distilled water + Tween-80 116 % of control | dose: 4.0 mg/kg/injection, schedule: Q01DX009 (ip), vehicle: distilled water + Tween-80 121 % of control | dose: 64.0 mg/kg/injection, schedule: Q01DX009 (ip), vehicle: water 100 % of control

COc1cc2c(cc1OC)C13CCN4CC5=CCOC6CC(=O)N2C1C6C5CC43 (centres undefined) (tested in a mixture with another compound)
inactive: [13] 100 % of control | [1] 104 % of control | [14] 104 % of control | [2] 106 % of control | [15] 104 % of control

COc1cc(Cc2nnc(N)[nH]c2=O)cc(OC)c1OC
inactive: dose: 6.25 mg/kg/injection, schedule: Q01DX009 (ip), vehicle: saline with Tween-80 97 % of control | dose: 12.5 mg/kg/injection, schedule: Q01DX009 (ip), vehicle: saline with Tween-80 91 % of control | [16] 116 % of control | [17] 89 % of control | [18] 100 % of control
